Laboratory results as given in the NIST ThermoML archive (doi:10.1021/je800110r).
± gives the expanded uncertainty stated by the source.

Conditions: Liquid, Vibrating tube method

CCCCCCCCCC [decane]
Conditions	mass density [kg/m3]
303.15 K, 32305 kPa	745.4 ± 2.1
303.15 K, 32325 kPa	745.3 ± 2.1
303.15 K, 32357 kPa	745.5 ± 2.1
303.15 K, 32384 kPa	745.5 ± 2.1
303.15 K, 32413 kPa	745.5 ± 2.1
303.15 K, 32436 kPa	745.5 ± 2.1
303.15 K, 32459 kPa	745.5 ± 2.1
303.15 K, 32482 kPa	745.5 ± 2.1
303.15 K, 32502 kPa	745.6 ± 2.1
303.15 K, 32522 kPa	745.4 ± 2.1
303.15 K, 32543 kPa	745.6 ± 2.1
303.15 K, 32563 kPa	745.6 ± 2.1
303.15 K, 32588 kPa	745.6 ± 2.1
303.15 K, 32611 kPa	745.7 ± 2.1
303.15 K, 32637 kPa	745.6 ± 2.1
303.15 K, 32667 kPa	745.7 ± 2.1
303.15 K, 32691 kPa	745.7 ± 2.1
303.15 K, 32718 kPa	745.7 ± 2.1
303.15 K, 32741 kPa	745.7 ± 2.1
303.15 K, 32758 kPa	745.8 ± 2.1
303.15 K, 32788 kPa	745.8 ± 2.1
303.15 K, 32812 kPa	745.8 ± 2.1
303.15 K, 32840 kPa	745.9 ± 2.1
303.15 K, 32864 kPa	745.9 ± 2.1
303.15 K, 32892 kPa	745.8 ± 2.1
303.15 K, 32923 kPa	745.8 ± 2.1
303.15 K, 32943 kPa	745.9 ± 2.1
303.15 K, 32971 kPa	745.9 ± 2.1
303.15 K, 32989 kPa	745.9 ± 2.1
303.15 K, 33010 kPa	745.9 ± 2.1
303.15 K, 33031 kPa	746 ± 2.1
303.15 K, 33062 kPa	746 ± 2.1
303.15 K, 33093 kPa	746 ± 2.1
303.15 K, 33114 kPa	746 ± 2.1
303.15 K, 33138 kPa	746.1 ± 2.1
303.15 K, 33163 kPa	746 ± 2.1
303.15 K, 33184 kPa	746 ± 2.1
303.15 K, 33212 kPa	746.1 ± 2.1
303.15 K, 33230 kPa	746.1 ± 2.1
303.15 K, 33258 kPa	746.1 ± 2.1
303.15 K, 33286 kPa	746 ± 2.1
303.15 K, 33314 kPa	746.1 ± 2.1
303.15 K, 33339 kPa	746.1 ± 2.1
303.15 K, 33364 kPa	746 ± 2.1
303.15 K, 33389 kPa	746.1 ± 2.1
303.15 K, 33424 kPa	746.1 ± 2.1
303.15 K, 33458 kPa	746.1 ± 2.1
303.15 K, 33487 kPa	746.2 ± 2.1
303.15 K, 33512 kPa	746.2 ± 2.1
303.15 K, 33545 kPa	746.2 ± 2.1
303.15 K, 33566 kPa	746.3 ± 2.1
303.15 K, 33588 kPa	746.3 ± 2.1
303.15 K, 33621 kPa	746.3 ± 2.1
303.15 K, 33642 kPa	746.3 ± 2.1
303.15 K, 33676 kPa	746.4 ± 2.1
303.15 K, 33697 kPa	746.3 ± 2.1
303.15 K, 33719 kPa	746.4 ± 2.1
303.15 K, 33741 kPa	746.4 ± 2.1
303.15 K, 33764 kPa	746.3 ± 2.1
303.15 K, 33790 kPa	746.4 ± 2.1
303.15 K, 33816 kPa	746.4 ± 2.1
303.15 K, 33848 kPa	746.4 ± 2.1
303.15 K, 33871 kPa	746.4 ± 2.1
303.15 K, 33904 kPa	746.4 ± 2.1
303.15 K, 33923 kPa	746.4 ± 2.1
303.15 K, 33961 kPa	746.4 ± 2.1
303.15 K, 33984 kPa	746.6 ± 2.1
303.15 K, 34018 kPa	746.6 ± 2.1
303.15 K, 34044 kPa	746.5 ± 2.1
303.15 K, 34068 kPa	746.5 ± 2.1
303.15 K, 34100 kPa	746.6 ± 2.1
303.15 K, 34124 kPa	746.5 ± 2.1
303.15 K, 34151 kPa	746.6 ± 2.1
303.15 K, 34180 kPa	746.5 ± 2.1
303.15 K, 34218 kPa	746.6 ± 2.1
303.15 K, 34247 kPa	746.6 ± 2.1
303.15 K, 34265 kPa	746.8 ± 2.1
303.15 K, 34284 kPa	746.8 ± 2.1
303.15 K, 34306 kPa	746.8 ± 2.1
303.15 K, 34332 kPa	746.7 ± 2.1
303.15 K, 34354 kPa	746.7 ± 2.1
303.15 K, 34372 kPa	746.8 ± 2.1
303.15 K, 34395 kPa	746.7 ± 2.1
303.15 K, 34422 kPa	746.8 ± 2.1
303.15 K, 34443 kPa	746.9 ± 2.1
303.15 K, 34449 kPa	746.8 ± 2.1
303.16 K, 4203 kPa	725.7 ± 2
303.16 K, 4220 kPa	725.6 ± 2
303.16 K, 4238 kPa	725.7 ± 2
303.16 K, 4251 kPa	725.8 ± 2
303.16 K, 4264 kPa	725.7 ± 2
303.16 K, 4275 kPa	725.6 ± 2
303.16 K, 4290 kPa	725.8 ± 2
303.16 K, 4305 kPa	725.8 ± 2
303.16 K, 4325 kPa	725.8 ± 2
303.16 K, 4341 kPa	725.8 ± 2
303.16 K, 4354 kPa	725.8 ± 2
303.16 K, 4367 kPa	725.9 ± 2
303.16 K, 4380 kPa	725.8 ± 2
303.16 K, 4395 kPa	725.9 ± 2
303.16 K, 4407 kPa	725.9 ± 2
303.16 K, 4422 kPa	725.8 ± 2
303.16 K, 4433 kPa	725.9 ± 2
303.16 K, 4451 kPa	725.9 ± 2
303.16 K, 4466 kPa	725.8 ± 2
303.16 K, 4480 kPa	725.9 ± 2
303.16 K, 4496 kPa	726 ± 2
303.16 K, 4508 kPa	726 ± 2
303.16 K, 4521 kPa	725.9 ± 2
303.16 K, 4534 kPa	725.9 ± 2
303.16 K, 4547 kPa	726 ± 2
303.16 K, 4563 kPa	726 ± 2
303.16 K, 4577 kPa	726.1 ± 2
303.16 K, 4593 kPa	726 ± 2
303.16 K, 4606 kPa	726 ± 2
303.16 K, 4625 kPa	726 ± 2
303.16 K, 4643 kPa	726 ± 2
303.16 K, 4656 kPa	726.1 ± 2
303.16 K, 4675 kPa	726.1 ± 2
303.16 K, 4693 kPa	726.1 ± 2
303.16 K, 4708 kPa	726.1 ± 2
303.16 K, 4723 kPa	726.1 ± 2
303.16 K, 4736 kPa	726.2 ± 2
303.16 K, 4754 kPa	726.1 ± 2
303.16 K, 4774 kPa	726.2 ± 2
303.16 K, 4788 kPa	726.2 ± 2
303.16 K, 4802 kPa	726.1 ± 2
303.16 K, 4819 kPa	726.2 ± 2
303.16 K, 4835 kPa	726.2 ± 2
303.16 K, 4846 kPa	726.2 ± 2
303.16 K, 4858 kPa	726.3 ± 2
303.16 K, 4870 kPa	726.2 ± 2
303.16 K, 4881 kPa	726.1 ± 2
303.16 K, 4893 kPa	726.1 ± 2
303.16 K, 4904 kPa	726.2 ± 2
303.16 K, 4918 kPa	726.3 ± 2
303.16 K, 4931 kPa	726.3 ± 2
